# Columns and labels:
# Test in all cases: combination Emax (second highest fraction inhibited in the dose matrix, 72 h); higher = more inhibition; extreme values may be limits of the assay
# [1] = test system: BFTC-905 (Bladder Carcinoma)
# Procedure, shortened: (§1)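 Cell lines grown in DMEM/F12 or RPMI with 10% FBS were plated in 1536-well plates and held 24 hours at 37°C, 5% CO2 before 72 hours of exposure to two-drug dose matrices, with DMSO typically at 0.2%. CellTiter-Glo 2.0 luminescence gave viability, which was converted to inhibition. Vehicle wells were set to 0 and blank wells to 1. Combination Emax is the second-highest inhibition in the matrix, and Bliss excess is the observed combination effect minus the expected EA + EB − EA·EB, where EA and EB are the single-agent effects.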
# [2] = test system: KCL-22 (Chronic Myelogenous Leukemia)
# Procedure, shortened: as §1
# NCI-H2818 (Mesothelioma) = test system: NCI-H2818 (Mesothelioma)
# Procedure, shortened: as §1
# MEL-JUSO (Melanoma) = test system: MEL-JUSO (Melanoma)
# Procedure, shortened: as §1
# TC-71 (Ewing's Sarcoma) = test system: TC-71 (Ewing's Sarcoma)
# Procedure, shortened: as §1
# [3] = test system: MS751 (Cervical Carcinoma)
# Procedure, shortened: as §1
# WM-115 (Melanoma) = test system: WM-115 (Melanoma)
# Procedure, shortened: as §1
# [4] = test system: COLO-678 (Colorectal Carcinoma)
# Procedure, shortened: as §1
# [5] = test system: NCI-H847 (Small Cell Lung Carcinoma)
# Procedure, shortened: as §1
# [6] = test system: DND-41 (T-Lymphoblastic Leukemia)
# Procedure, shortened: as §1
# [7] = test system: NCI-H1792 (Lung Adenocarcinoma)
# Procedure, shortened: as §1
# [8] = test system: SW837 (Colorectal Carcinoma)
# Procedure, shortened: as §1
# [9] = test system: PANC-08-13 (Pancreatic Carcinoma)
# Procedure, shortened: as §1
# LN-18 (Glioblastoma) = test system: LN-18 (Glioblastoma)
# Procedure, shortened: as §1
# [10] = test system: MKN28 (Gastric Carcinoma)
# Procedure, shortened: as §1
# [11] = test system: CAMA-1 (Breast Carcinoma)
# Procedure, shortened: as §1
# U251 (Low Grade Glioma) = test system: U251 (Low Grade Glioma)
# Procedure, shortened: as §1
# [12] = test system: EVSA-T (Breast Carcinoma)
# Procedure, shortened: as §1
# [13] = test system: BL-41 (Burkitt's Lymphoma)
# Procedure, shortened: as §1
# [14] = test system: KYSE-180 (Esophageal Squamous Cell Carcinoma)
# Procedure, shortened: as §1
Structure (SMILES),combination Emax [1],combination Emax [2],combination Emax (NCI-H2818 (Mesothelioma)),combination Emax (MEL-JUSO (Melanoma)),combination Emax (TC-71 (Ewing's Sarcoma)),combination Emax [3],combination Emax (WM-115 (Melanoma)),combination Emax [4],combination Emax [5],combination Emax [6],combination Emax [7],combination Emax [8],combination Emax [9],combination Emax (LN-18 (Glioblastoma)),combination Emax [10],combination Emax [11],combination Emax (U251 (Low Grade Glioma)),combination Emax [12],combination Emax [13],combination Emax [14]
"C=CCn1c(=O)c2cnc(Nc3ccc(N4CCN(C)CC4)cc3)nc2n1-c1cccc(C(C)(C)O)n1 [AZD1775] + C[C@@H]1COCCN1C2=NC(=NC(=C2)C3(CC3)[S@](=N)(=O)C)C4=C5C=CNC5=NC=C4 [AZD6738] (first compound max 1 µM, partner max 10 µM)",0.964,1,0.475,0.496,0.941,0.428,0.595,0.199,1,0.929,0.866,0.636,0.373,0.736,0.695,0.46,0.773,0.483,1,0.939
"Cc1c2c(nn1C)CSCc1cc(n(C)n1)CSc1cc(c3ccccc3c1)OCCCc1c(C(=O)O)n(C)c3c-2c(Cl)ccc13 [AZD5991] + C=CCn1c(=O)c2cnc(Nc3ccc(N4CCN(C)CC4)cc3)nc2n1-c1cccc(C(C)(C)O)n1 [AZD1775] (first compound max 1 µM, partner max 1 µM)",0.673,0.969,0.519,0.749,0.578,0.9,0.34,0.391,1,0.875,0.708,0.406,0.379,0.602,0.572,0.635,0.423,1,1,0.95
"C=CCn1c(=O)c2cnc(Nc3ccc(N4CCN(C)CC4)cc3)nc2n1-c1cccc(C(C)(C)O)n1 [AZD1775] + C1CN(CCC1(C(=O)N[C@@H](CCO)C2=CC=C(C=C2)Cl)N)C3=NC=NC4=C3C=CN4 [Capivasertib] (first compound max 3 µM, partner max 3 µM)",0.904,0.962,0.493,0.442,0.92,0.899,0.536,0.51,1,0.899,0.808,0.692,0.544,0.581,0.609,0.775,0.671,0.958,0.993,0.8
"Cc1c2c(nn1C)CSCc1cc(n(C)n1)CSc1cc(c3ccccc3c1)OCCCc1c(C(=O)O)n(C)c3c-2c(Cl)ccc13 [AZD5991] + CCN(CCO)CCCOc1ccc2c(Nc3cc(CC(=O)Nc4cccc(F)c4)[nH]n3)ncnc2c1 [AZD2811] (first compound max 1 µM, 7x7, partner max 1 µM)",0.794,0.921,0.287,0.592,0.848,0.855,0.232,0.227,0.973,0.21,0.314,0.231,0.281,0.701,0.329,0.914,0.423,1,1,0.942
"COc1cccc(OCCCN)c1-c1cc(Nc2cnc(C#N)cn2)n[nH]1 [Prexasertib] + CCc1c2c(nc3ccc(O)cc13)-c1cc3c(c(=O)n1C2)COC(=O)[C@]3(O)CC [SN-38] (first compound max 1 µM, 7x7, partner max 0.3 µM)",0.983,0.989,0.423,0.707,1,0.984,0.514,0.26,1,0.943,0.893,0.844,0.702,1,0.742,0.507,0.984,0.986,1,1
"CC1(C)CCC(CN2CCN(c3ccc(C(=O)NS(=O)(=O)c4ccc(NCC5CCOCC5)c([N+](=O)[O-])c4)c(Oc4cnc5[nH]ccc5c4)c3)CC2)=C(c2ccc(Cl)cc2)C1 [Venetoclax] + CN(C)CCCOc1ccc(-c2ccc3ncc4c(c3c2)n(C2CCOCC2)c(=O)n4C)cn1 [AZD0156] (first compound max 1 µM, 7x7, partner max 1 µM)",0.588,0.212,0.284,0.233,0.294,0.198,0.179,0.187,0.378,0.893,0.223,0.145,0.189,0.329,0.26,0.145,0.227,0.213,0.163,0.155
"COc1cccc2c1C(=O)c1c(O)c3c(c(O)c1C2=O)C[C@@](O)(C(=O)CO)C[C@@H]3O[C@H]1C[C@H](N)[C@H](O)[C@H](C)O1 [Doxorubicin] + Cc1cc2ncnn2cc1Nc1ncc2c(n1)n(C1CCOCC1)c(=O)n2C [AZD7648] (first compound max 1 µM, 7x7, partner max 10 µM)",0.974,0.932,0.694,0.328,0.965,0.891,0.678,0.715,0.961,0.889,0.923,0.516,0.182,0.33,0.503,0.469,0.859,0.787,1,0.858
"CC1(C)CCC(CN2CCN(c3ccc(C(=O)NS(=O)(=O)c4ccc(NCC5CCOCC5)c([N+](=O)[O-])c4)c(Oc4cnc5[nH]ccc5c4)c3)CC2)=C(c2ccc(Cl)cc2)C1 [Venetoclax] + COc1cc(Nc2ncc3c(n2)-c2ccc(Cl)cc2C(c2c(F)cccc2OC)=NC3)ccc1C(=O)O [Alisertib] (first compound max 1 µM, 7x7, partner max 10 µM)",0.671,0.811,0.36,0.301,0.855,0.724,0.379,0.181,1,0.947,0.65,0.308,0.302,0.787,0.245,0.341,0.49,0.598,0.978,0.377
"Cc1c2c(nn1C)CSCc1cc(n(C)n1)CSc1cc(c3ccccc3c1)OCCCc1c(C(=O)O)n(C)c3c-2c(Cl)ccc13 [AZD5991] + Cn1cnc2c(F)c(Nc3ccc(Br)cc3Cl)c(C(=O)NOCCO)cc21 [Selumetinib] (first compound max 1 µM, 7x7, partner max 3 µM)",0.751,0.959,0.293,0.669,0.578,0.896,0.68,0.423,0.863,0.181,0.704,0.325,0.208,0.315,0.387,0.509,0.274,1,1,0.848
"CN(CCO)CC[C@H](CSc1ccccc1)Nc1ccc(S(=O)(=O)NC(=O)c2ccc(N3CCC([C@@H](O)c4ccccc4-c4ccc(Cl)cc4)CC3)cc2)cc1S(=O)(=O)C(F)(F)F [AZD4320] + CN(C)CCCOc1ccc(-c2ccc3ncc4c(c3c2)n(C2CCOCC2)c(=O)n4C)cn1 [AZD0156] (first compound max 1 µM, 7x7, partner max 1 µM)",0.15,0.361,0.268,0.212,0.659,0.101,0.363,0.0581,1,1,0.12,0.191,0.352,0.222,0.0805,0.117,0.185,0.163,0.277,0.112
"Cc1c2c(nn1C)CSCc1cc(n(C)n1)CSc1cc(c3ccccc3c1)OCCCc1c(C(=O)O)n(C)c3c-2c(Cl)ccc13 [AZD5991] + CC1(C)CCC(CN2CCN(c3ccc(C(=O)NS(=O)(=O)c4ccc(NCC5CCOCC5)c([N+](=O)[O-])c4)c(Oc4cnc5[nH]ccc5c4)c3)CC2)=C(c2ccc(Cl)cc2)C1 [Venetoclax] (first compound max 1 µM, 7x7, partner max 1 µM)",0.604,0.928,0.387,0.339,0.831,0.812,0.59,0.0393,0.98,0.418,0.379,0.184,0.116,0.374,0.126,0.934,0.239,1,1,0.922
"CC1(C)CCC(CN2CCN(c3ccc(C(=O)NS(=O)(=O)c4ccc(NCC5CCOCC5)c([N+](=O)[O-])c4)c(Oc4cnc5[nH]ccc5c4)c3)CC2)=C(c2ccc(Cl)cc2)C1 [Venetoclax] + Cn1cnc2c(F)c(Nc3ccc(Br)cc3Cl)c(C(=O)NOCCO)cc21 [Selumetinib] (first compound max 1 µM, 7x7, partner max 3 µM)",0.454,0.318,0.133,0.305,0.291,0.191,0.42,0.485,0.168,0.891,0.251,0.297,0.184,0.17,0.278,0.0815,0.137,0.182,0.196,0.0548

# — the supplement of paper PMC11061612
